How the values were obtained:
Type in all cases: cell-based
TMD8 cells = assay: Viability assay of TMD8 cells (CTG); settings: Homo sapiens, cell viability, 120 hours
Experimental: (§1) The in vitro antiproliferative activity of the compounds of the present disclosure against TMD8 cells and OCI-LY10 cells was assayed using CTG (Cell Titer-Glo) luminescent cell viability assay. The specific assay methods were as follows. • a) TMD8 cells were cultured at 37 °C and 5% CO2 in complete medium [RPMI 1640 (supplier Gibco, product number 22400-089) + 10% FBS (supplier Gibco, product number 10091-148) + 1% P/S (supplier Hyclone, product number SV30010)]; OCI-LY10 cells were cultured at 37 °C and 5% CO2 in medium [IMDM (supplier Gibco, product number 31980-030) + 20% FBS (supplier Gibco, product number 10091-148) + 1% P/S (supplier Hyclone, product number SV30010) + 0.05 mM 2-Mercaptoethanol (supplier Sigma, product number M6250)]. • b) Cells in the logarithmic growth phase were harvested, and the total cell count and viable cell count were determined using a Vi-cell cell counter (supplier: BECKMAN COULTER, product number 2785198). • c) Cell density was adjusted using complete culture medium. Then, the cells were inoculated at 1500 cells per well in a 384-well cell culture plate (supplier Greiner, product number 781090). • d) The cells in the 384-well plate were cultured at 37 °C and 5% CO2 overnight. • e) A 10-fold drug solution was prepared, and then the serially diluted compound was transferred to the corresponding assay wells of the 384-well cell plate so that the final assay concentration was 1000 nM, with 9 concentrations, 3-fold dilutions, and triplicates for each drug concentration. • f) The cells in the 384-well plate with the drug added were cultured at 37 °C and 5% CO2 for another 120 hours. • g) The cells were removed from the incubator, and allowed to equilibrate at room temperature for 30 minutes. The cell state and compound solubility were observed under a microscope. • h) An equal volume of CellTiterGlo solution (supplier Promega, product number G7573) was added to each well, and the plate was incubated at room temperature for 30 minutes. • i) Then, the luminescent signal value was detected on an EnVision instrument (supplier PerkinElmer, product number 2441715).
(§2) The data were analyzed using XL-fit software (supplier: ID Business Solutions Ltd., software version: XL fit 5.5.0.5). Nonlinear regression was performed using X=Log(X), and the X values were transformed using a four-parameter Logistic model 205, from which the IC50 values were calculated. Inhibition rate % = (Max−samplevalue)/Max*100.(Max:DMSOnegativecontrol) [formula]

OCI-LY10 cells = assay: Viability assay of OCI-LY10 cells (CTG); settings: Homo sapiens, OCI-Ly10, 120 h, cell viability, read-out: OCl-Ly10
Experimental: as §1, §2

[1] = system: Ba/F3-ETV6-BTK-T474I cells; assay: Viability assay of Ba/F3-ETV6-BTK-T474I cells (CTG); settings: Mus musculus, BaF3, cell viability, 72 hours
Experimental: The in vitro antiproliferative activity of the compounds of the present disclosure against Ba/F3-ETV6-BTK-T474I cells was assayed using CTG luminescent cell viability assay. The specific assay methods were as follows: • a) Ba/F3-ETV6-BTK-T474I cells were cultured at 37 °C and 5% CO2 in complete medium [RPMI 1640 (supplier Gibco, product number 22400-089) + 10% FBS (supplier Gibco, product number 10091-148)]. • b) Cells in the logarithmic growth phase were harvested, and cell counting was performed using a […]. Trypan blue exclusion test was used to determine the cell viability, ensuring that the cell viability was above 90%. • c) Cell density was adjusted using complete culture medium. Then, the cells were inoculated at 90 µL, a total of 3000 cells per well in a 96-well cell culture plate (supplier: Shanghai Jing An Biotechnology Co., Ltd., product number J09601). • d) The cells in the 96-well plate were cultured at 37 °C and 5% CO2. • e) A 10-fold drug solution was prepared, and then 10 µL of each serially diluted compound was transferred to the corresponding assay wells of the 96-well cell plate so that the final assay concentration was 1000 nM, with 9 concentrations, 3.16-fold dilutions, and triplicates for each drug concentration. • f) The cells in the 96-well plate with the drug added were cultured at 37 °C and 5% CO2 for another 72 hours. Then, CTG analysis was performed. • g) The CTG reagent was melted, and the cell plate was equilibrated at room temperature for 30 minutes. • h) An equal volume of CTG solution was added to each well. • i) The plate was shaken on an orbital shaker for 5 minutes to lyse the cells. • j) The cell plate was placed at room temperature for 20 minutes to stabilize the luminescent signal. • k) The luminescent signal values were read and the data were collected.
The data were analyzed using GraphPad Prism 7.0 software. Nonlinear S-curve regression was used to fit the data to give a dose-response curve, from which the IC50 values were calculated. [formula]

Row | Structure (SMILES) | IC50 (TMD8 cells) | IC50 (OCI-LY10 cells) | IC50 [1]
1 | COc1ccc(F)cc1C(=O)NCc1ccc(-c2ncc(-c3ccc(CN4CCCCC4)cn3)c3[nH]nc(N)c23)cc1 [Example 66, N-(4-(3-amino-7-(5-(piperidin-1-ylmethyl)pyridin-2-yl)-1H-pyrazolo[4,3-c]pyridin-4-yl)benzyl)-5-fluoro-2-methoxybenzamide] | ≤ 5 nM | ≤ 5 nM | ≤ 5 nM
2 | COc1ccc(F)cc1C(=O)NCc1ccc(-c2ncc(-c3ccc(C(C)(C)O)cn3)c3[nH]nc(N)c23)cc1 [Example 65, N-(4-(3-amino-7-(5-(2-hydroxypropan-2-yl)pyridin-2-yl)-1H-pyrazolo[4,3-c]pyridin-4-yl)benzyl)-5-fluoro-2-methoxybenzamide] | ≤ 5 nM | ≤ 5 nM | ≤ 5 nM
3 | COc1ccc(F)cc1C(=O)NCc1ccc(-c2ncc(-c3ccc(C(=O)N4CCOCC4)cn3)c3[nH]nc(N)c23)cc1 [Example 52, N-(4-(3-amino-7-(5-(morpholine-4-carbonyl)pyridin-2-yl)-1H-pyrazolo[4,3-c]pyridin-4-yl)benzyl)-5-fluoro-2-methoxybenzamide] | ≤ 5 nM | ≤ 5 nM | ≤ 5 nM
4 | COc1ccc(F)cc1C(=O)NCc1ccc(-c2ncc(-c3ccc(N4CCN(C)C[C@@H]4C)cn3)c3[nH]nc(N)c23)cc1 [Example 74, (S)-N-(-4-(3-amino-7-(5-(2,4-dimethylpiperazin-1-yl)pyridin-2-yl) 1H-pyrazolo[4,3-c]pyridin-4-yl)benzyl)-5-fluoro-2-methoxybenzamide] | ≤ 5 nM | ≤ 5 nM | ≤ 5 nM
5 | CCN1CCn2nc(-c3cnc(-c4ccc(CNC(=O)c5cc(F)ccc5OC)cc4)c4c(N)n[nH]c34)cc2C1 [Example 72, N-(4-(3-amino-7-(5-ethyl-4,5,6,7-tetrahydropyrazolo[1,5-a]pyrazin-2-yl)-1H-pyrazolo[4,3-c]pyridin-4-yl)benzyl)-5-fluoro-2-methoxybenzamide] | ≤ 5 nM | ≤ 5 nM | 5 to 10 nM
6 | COc1ccc(F)cc1C(=O)NCc1ccc(-c2ncc(-c3cc4ccccn4n3)c3[nH]nc(N)c23)cc1 [Example 69, N-(4-(3-amino-7-(pyrazolo[1,5-a]pyridin-2-yl)-1H-pyrazolo[4,3-c]pyridin-4-yl)benzyl)-5-fluoro-2-methoxybenzamide] | ≤ 5 nM | ≤ 5 nM | 10 to 50 nM
7 | COc1ccc(F)cc1C(=O)NCc1ccc(-c2ncc(-c3ccc(C4COC4)cn3)c3[nH]nc(N)c23)cc1 [Example 43, N-(4-(3-amino-7-(5-(oxetan-3-yl)pyridin-2-yl)-1H-pyrazolo[4,3-c]pyridin-4-yl)benzyl)-5-fluoro-2-methoxybenzamide] | ≤ 5 nM | ≤ 5 nM | 5 to 10 nM
8 | COc1ccc(F)cc1C(=O)NCc1ccc(-c2ncc(-c3ccc(CN4CCN(C)CC4)cn3)c3[nH]nc(N)c23)cc1 [Example 68, N-(4-(3-amino-7-(5-((4-methylpiperazin-1-yl)methyl)pyridin-2-yl)-1H-pyrazolo[4,3-c]pyridin-4-yl)benzyl)-5-fluoro-2-methoxybenzamide] | ≤ 5 nM | ≤ 5 nM | ≤ 5 nM
9 | COc1ccc(F)cc1C(=O)NCc1ccc(-c2ncc(-c3ccc(N4CCN(C)C[C@H]4C)cn3)c3[nH]nc(N)c23)cc1 [Example 75, (R)-N-(-4-(3-amino-7-(5-(2,4-dimethylpiperazin-1-yl)pyridin-2-yl) 1H-pyrazolo[4,3-c]pyridin-4-yl)benzyl)-5-fluoro-2-methoxybenzamide] | ≤ 5 nM | ≤ 5 nM | ≤ 5 nM
10 | COc1ccc(F)cc1C(=O)NCc1ccc(-c2nc(C3CCOCC3)cc3[nH]nc(N)c23)cc1 [Example 115, N-(4-(3-amino-6-(tetrahydro-2H-pyran-4-yl)-1H-pyrazolo[4,3-c]pyridin-4-yl)benzyl)-5-fluoro-2-methoxybenzamide] | 10 to 50 nM | 10 to 50 nM | > 50 nM
11 | COc1ccc(F)cc1C(=O)NCc1ccc(-c2ncc(-c3ccc(C)cn3)c3[nH]nc(N)c23)cc1 [Example 37, N-(4-(3-amino-7-(5-methylpyridin-2-yl)-1H-pyrazolo[4,3-c]pyridin-4-yl)benzyl)-5-fluoro-2-methoxybenzamide] | ≤ 5 nM | ≤ 5 nM | 10 to 50 nM
12 | COc1ccc(F)cc1C(=O)NCc1ccc(-c2ncc(-c3ccc(OCCN4CCOCC4)cn3)c3[nH]nc(N)c23)cc1 [Example 61, N-(4-(3-amino-7-(5-(2-morpholinoethoxy)pyridin-2-yl)-1H-pyrazolo[4,3-c]pyridin-4-yl)benzyl)-5-fluoro-2-methoxybenzamide] | ≤ 5 nM | ≤ 5 nM | ≤ 5 nM
13 | COc1ccc(F)cc1C(=O)NCc1ccc(-c2ncc(-c3ccc(N4CCOCC4)cn3)c3[nH]nc(N)c23)cc1 [Example 76, N-(4-(3-amino-7-(5-morpholinopyridin-2-yl)-1H-pyrazolo[4,3-c]pyridin-4-yl)benzyl)-5-fluoro-2-methoxybenzamide] | ≤ 5 nM | ≤ 5 nM | ≤ 5 nM
14 | COc1ccc(F)cc1C(=O)NCc1ccc(-c2ncc(-c3ccc(CN4CCOCC4)cn3)c3[nH]nc(N)c23)cc1 [Example 67, N-(4-(3-amino-7-(5-(morpholinomethyl)pyridin-2-yl)-1H-pyrazolo[4,3-c]pyridin-4-yl)benzyl)-5-fluoro-2-methoxybenzamide] | ≤ 5 nM | ≤ 5 nM | ≤ 5 nM
15 | COc1ccc(F)cc1C(=O)NCc1ccc(-c2ncc(-c3ccn4nccc4n3)c3[nH]nc(N)c23)cc1 [Example 46, N-(4-(3-amino-7-(pyrazolo[1,5-a]pyrimidin-5-yl)-1H-pyrazolo[4,3-c]pyridin-4-yl)benzyl)-5-fluoro-2-methoxybenzamide] | ≤ 5 nM | 5 to 10 nM | > 50 nM
16 | COCCOc1ccc(-c2cnc(-c3ccc(CNC(=O)c4cc(F)ccc4OC)cc3)c3c(N)n[nH]c23)nc1 [Example 59, N-(4-(3-amino-7-(5-(2-methoxyethoxy)pyridin-2-yl)-1H-pyrazolo[4,3-c]pyridin-4-yl)benzyl)-5-fluoro-2-methoxybenzamide] | ≤ 5 nM | ≤ 5 nM | 5 to 10 nM
17 | COc1ccc(F)cc1C(=O)NCc1ccc(-c2ncc(-c3ccc(C(=O)N4C[C@H](C)O[C@@H](C)C4)cn3)c3[nH]nc(N)c23)cc1 [Example 53, N-(4-(3-amino-7-(5-((2S,6S)-2,6-dimethylmorpholine-4-carbonyl)pyridin-2-yl)-1H-pyrazolo[4,3-c]pyridin-4-yl)benzyl)-5-fluoro-2-methoxybenzamide] | ≤ 5 nM | ≤ 5 nM | ≤ 5 nM
18 | COc1ccc(F)cc1C(=O)NCc1ccc(-c2ncc(-c3cc4ncccn4n3)c3[nH]nc(N)c23)cc1 [Example 44, N-(4-(3-amino-7-(pyrazolo[1,5-a]pyrimidin-2-yl)-1H-pyrazolo[4,3-c]pyridin-4-yl)benzyl)-5-fluoro-2-methoxybenzamide] | ≤ 5 nM | ≤ 5 nM | 5 to 10 nM

— patent EP4741392A1, “1H-PYRAZOLO[4,3-C]PYRIDINE COMPOUND, AND COMPOSITION THEREOF AND USE THEREOF” (Shenzhen TargetRx Co., Ltd., priority 2023, dated 2025)
